Laboratory results reported in US20210017569A1, “Ligase Screening Assay” (UNIVERSITY OF DUNDEE, priority 2018, published 2021).

Tests used:
Type in all cases: biochemical
GST-MYCBP2 = molecular target: T1, GST-MYCBP2 (Homo sapiens, UniProt O75592); assay: Multiple turnover amino acid and peptide panel discharge assays; conditions: for function as proxy substrate (hydroxy probe) of MYCBP2: tested herein as proxy substrates; for discharge activity / Ub modification in amino acid panel: amino acid nucleophile, UBE2D3~Ub, MYCBP2cat
T1 construct: GST-tagged MYCBP2cat (Ser4378-Phe4640), wt and mutants, were expressed at 16° C. overnight; made in house; host or cells: E. coli BL21-DE3
T1 sequence (O75592 4416-4678 limits assumed): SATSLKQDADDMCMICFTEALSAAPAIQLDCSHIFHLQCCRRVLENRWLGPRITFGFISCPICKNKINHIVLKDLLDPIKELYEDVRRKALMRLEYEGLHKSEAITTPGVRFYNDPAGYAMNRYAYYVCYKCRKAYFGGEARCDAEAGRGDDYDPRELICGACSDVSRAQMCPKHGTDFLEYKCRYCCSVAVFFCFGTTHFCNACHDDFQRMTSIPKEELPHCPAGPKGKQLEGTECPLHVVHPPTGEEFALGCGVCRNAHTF
Description: Stock solutions (0.5 M) of amino acids were dissolved in MQ water and pH was adjusted to pH ˜8. Peptides of the sequence Ac-EGXGN-NH2 (X=K, S or T) were obtained from Bio-Synthesis Inc. Stock peptide solutions (200 mM) were dissolved in MQ water and pH was adjusted to pH ˜8. An E2 (UBE2D3) charging reaction was carried out in buffer (40 mM Na2HPO4—HCl pH 8.0, 150 mM NaCl, 0.5 mM TCEP) containing UBE1 (250-500 nM), UBE2D3 (20 μM), Ub (50 μM), or Cy3B-Ub (25 μM), MgCl2 (5 mM) and ATP 10 (mM). The reaction was incubated at 37° C. for 15 minutes and then equilibrated to 23° C. for 3 minutes. An equivalent volume of nucleophile sample containing small molecule/peptide nucleophile (100 mM) and GST-MYCBP2 (10 μM) was then added and incubated at 23° C. Samples were taken at the specified time points and analyzed as described for Tris/glycerol-mediated E2 discharge assay.
Cy3B-Ub was visualized using a Chemidoc Gel Imaging System (Biorad). LC-MS was carried out as described for Tris/glycerol discharge but amino acid substrate samples were quenched by the addition of 2:1 parts quenching solution (75% acetonitrile, 2% TFA) and peptide substrate samples were quenched by addition of 1:1 parts quenching solution.

MYCBP2 = molecular target: T2, MYCBP2 (Homo sapiens, UniProt O75592); assay: Tris/glycerol-mediated E2 discharge assay with LC-MS analysis; conditions: Tris 50 mM and glycerol ~65 mM in assay buffer
T2 construct: GST-tagged MYCBP2cat (Ser4378-Phe4640), wt and mutants, were expressed at 16° C. overnight; GST (N); made in house; host or cells: E. coli BL21-DE3
T2 sequence (O75592 4416-4678 limits assumed): T1 sequence (O75592 4416-4678 limits assumed)
Description: Assays were carried out in buffer (50 mM Tris-HCl pH 7.5, 150 mM NaCl, 0.5 mM TCEP, 5 mM MgCl2) containing the indicated MYCBP2 mutant (15 μM), UBE1 (1.5 μM), UBE2D3 (15 μM), Ub (37 μM) and ATP (10 mM). The reactions were incubated at 37° C. for 30 minutes. Reactions were terminated by the addition of 4×LDS loading buffer (with and without ˜680 mM 2-mercaptoethanol). A C4572S sample was further incubated with 0.14 N NaOH at 37° C. for 20 minutes and samples were resolved by SDS-PAGE (4-12% NuPage gel) and visualized by Coomassie staining.
Reactions were prepared as described for discharge assay. After 30 minutes, the reaction was analyzed using an Agilent 1200/6130 LC-MS system (Agilent Technologies) using a 10-75% gradient over 20 minutes (buffer A=H2O+0.05% TFA, buffer B=acetonitrile+0.04% TFA).

MYCBP2cat = molecular target: T3, MYCBP2cat (Homo sapiens, UniProt O75592); assay: NMNAT2 ubiquitination assay; conditions: base lability and thiol resistance test
T3 construct: GST-tagged MYCBP2cat (Ser4378-Phe4640), wt and mutants, were expressed at 16° C. overnight; GST (N, cleaved yes); made in house; host or cells: E. coli BL21-DE3
T3 sequence (O75592 4416-4678 limits assumed): T1 sequence (O75592 4416-4678 limits assumed)
Description: NMNAT2 (5 μM) was mixed with E1 (500 nM), UBE2D3 (10 μM), MYCBP2cat (10 μM), Ub (50 μM), ATP (10 mM) and made up with 10×pH 7.5 buffer (40 mM Na2H2PO4 pH 7.5, 150 mM NaCl, 5 mM MgCl2, 0.5 mM TCEP). The reactions were incubated at 37° C. for 1 hour and terminated by the addition of 4×LDS loading buffer (either non-reducing or reducing). For base lability test, reactions were supplemented with 0.14 N NaOH and then further incubated at 37° C. for 20 minutes.

GST-MYCBP2cat = molecular target: T4, GST-MYCBP2cat (Homo sapiens, UniProt O75592); assay: Multiple turnover E2 discharge panel (threonine discharge); conditions: 17 E2s tested
T4 construct: GST-tagged MYCBP2cat (Ser4378-Phe4640), wt and mutants, were expressed at 16° C. overnight; made in house; host or cells: E. coli BL21-DE3
T4 sequence (O75592 4416-4678 limits assumed): T1 sequence (O75592 4416-4678 limits assumed)
Description: E2s were screened for threonine discharge activity with GST-MYCBP2cat as described for the amino acid panel. E2s were also incubated in the presence of threonine but in the absence of GST-MYCBP2cat. These samples provided a reference to distinguish between intrinsic E2˜Ub instability and E3-dependent discharge.

O=S(=O)(O)CCN1CCN(CCO)CC1 [HEPES, 4-(2-hydroxyethyl)-1-piperazineethanesulfonic acid]
function as proxy substrate (hydroxy probe) of MYCBP2 (GST-MYCBP2): functional

OCC(O)CO [glycerol]
function as proxy substrate (hydroxy probe) of MYCBP2 (GST-MYCBP2): functional | conversion of Ub into condensation product with nucleophile (MYCBP2): quantitatively converted

NCCCC[C@H](N)C(=O)O [lysine]
discharge activity / Ub modification in amino acid panel (GST-MYCBP2): low level

N[C@@H](CO)C(=O)O [serine]
function as proxy substrate (hydroxy probe) of MYCBP2 (GST-MYCBP2): functional

C[C@@H](O)[C@H](N)C(=O)O [threonine]
discharge activity / Ub modification in amino acid panel (GST-MYCBP2): strikingly enhanced | selectivity for threonine over serine (GST-MYCBP2; amino acid substrates, MS-based quantification of Ub esterification): ~10 fold | Threonine selectivity in a peptide context (GST-MYCBP2; peptides Ac-EGXGN-NH2 (X=K, S or T)): 3 fold | function as proxy substrate (hydroxy probe) of MYCBP2 (GST-MYCBP2): functional

NMNAT2: Nicotinamide Mononucleotide Adenyltransferase, putative MYCBP2 substrate
ubiquitination by MYCBP2cat in vitro (MYCBP2cat): hydroxide labile but thiol resistant ubiquitination

UBE2D1: E2 conjugating enzyme
E2 partner activity with MYCBP2cat (GST-MYCBP2cat): robust activity

UBE2D3: E2 conjugating enzyme, N-terminally 6His-tagged recombinant protein
E2 partner activity with MYCBP2cat (GST-MYCBP2cat): robust activity

tris(hydroxymethyl)aminomethane
function as proxy substrate (hydroxy probe) of MYCBP2 (GST-MYCBP2): functional | conversion of Ub into condensation product with nucleophile (MYCBP2): quantitatively converted
